This note sets out measurements from patent US20230159931A1, “TARGETING THE PALMOTYLATION/DEPALMOTYLATION CYCLE TO TREAT INFLAMMATORY DISEASES” (CORNELL UNIVERSITY, priority 2020, published 2023).

This test deals with DSS-induced colitis in mice. Briefly: DSS-induced mouse colitis model. In kind it is in vivo. How it is done:
FIGS. 4A-4I. The STAT3 palmitoylation-depalmitoylation cycle aggravates colitis. (A), (B) Human PBMCs from 26 healthy participants (Ctrl), 24 patients with Crohn's disease (CD; 7 remission stage (rem.) and 17 active stage (act.)) and 10 patients with ulcerative colitis (UC; 1 remission stage and 9 active stage) were extracted. LYPLA2 and ZDHHC7 mRNA levels were analysed using qPCR. The relative p-STAT3 levels were quantified by western blots. c, d, The correlations between IL17A (C) or p-STAT3 (D) and the mRNA levels of the indicated genes in 34 patients with IBD. (E), (F), C57BL/6J mice were treated with 2.5% DSS in drinking water ad libitum and ML349 was intraperitoneally injected daily on the day that DSS treatment started. Body weight changes (E) and TH17 cell levels in the spleen (F) were evaluated. (G), (H), Wild-type and DHHC7-knockout mice were treated with 2.5% DSS in drinking water ad libitum. Body weight changes (G) and TH17 cell levels in the spleen (H) were evaluated. (I), Model of the regulation of STAT3 by the palmitoylation-depalmitoylation cycle. Palmitoylation of STAT3 by DHHC7 promotes the membrane recruitment and phosphorylation of STAT3. APT2 promotes the nuclear translocation of p-STAT3 by selectively depalmitoylating p-STAT3 over STAT3. The palmitoylation-depalmitoylation cycle drives the membrane localization and phosphorylation of STAT3, and the nuclear translocation of p-STAT3. The direction of the cycle is ensured by the preference of APT2 for p-STAT3 over STAT3. Data are expressed as the mean±s.e.m. *P<0.05; **P<0.01.
The mouse protocol 2019-0009 was approved by the Institutional Animal Care and Use Committee (IACUC) at Cornell University. All animals were housed under specific-pathogen-free conditions following the regulations of the IACUC. Mice (6-8 weeks old) were randomized into different groups (8 mice per group, mixed sex) as indicated. Colitis was induced by treating with 3.0% DSS (MP Biomedicals) in their drinking water ad libitum. ML349 solution was intraperitoneally injected into the mice at the indicated doses every other day. All mice were euthanized and the spleens were isolated to detect T cells. The distance from caecum to anus was measured. The colon was fixed in 4% paraformaldehyde for pathological examination. The study was not blinded.
The inventors tested whether the pharmacological inhibition of APT2 with ML349 could reduce dextran sulfate sodium (DSS)-induced colitis in mice, an experimental model for IBD.

The mark [1] stands for this setting: DSS treatment followed by ML349 treatment, intraperitoneal.
Where [2] appears, read: pretreatment with ML349 followed by treatment with DSS.

For `COc1ccc(N2CCN(C(=O)c3cc4c(s3)-c3ccccc3S(=O)(=O)C4)CC2)cc1` [ML349], under setting [1], the colon shortening result is given as “significantly attenuated” and the weight loss entry is recorded as “significantly attenuated”. The “levels of TH17 cells in mouse splenocytes” value (DSS-treated mice, spleen) is recorded as “significantly decreased”. In addition, under setting [2], the survival rate entry was “increased the survival rate” and the weight loss result is on record as “significantly attenuated weight loss”.
